According to patent US20110213033A1, “SKIN CONDITIONER” (Kabushiki Kaisha Soken, priority 1998, published 2011):

Tests used:
[1] = tested on: atopic skin; assay: 2-hour moisture retention duration test on atopic skin; format: in vivo, human; settings: FIGS. 21 through 31
Protocol: A 2-hour moisture retention duration test was performed on atopic skin.
Panelists: 7 persons with atopic skin
Test Method: Same as Test Example 2
Measurement Method: Same as Text Example 2
Test Apparatus: Same as Test Example 2

[2] = tested on: normal human skin fibroblasts; assay: Collagen production recovery test on damaged fibroblasts; format: cell-based; settings: hypoxanthine/xanthine oxidase damage; samples at final concentration 3.3%, 24 hours at 37° C.; FIG. 1
Protocol: A collagen production recovery test was conducted on damaged fibroblasts. Six to eight subcultures of normal human skin fibroblasts (Physicochemical Research Institute, Cell Development Bank BIRGB) were used in the test. […] Measurement of collagen production ability of a confluent in the steady state was performed according to the method of Webster, et al. based on the uptake of ^3H-proline into the produced collagen. […] Since proline is a main component of the amino acids that compose collagen, fibroblasts are cultured in a medium containing ^3H-proline, and the ^3H activity taken up into collagen in the cells is measured. Units are in d.p.m., and represent the number of […] of radioactivity released per minute.

N=C(N)NCCC[C@H](N)C(=O)O [L-arginine]
moisture retention duration (30 to 120 minutes after application) [1]: continuation of moisture retention was observed | collagen production ability of fibroblasts damaged by active oxygen (3H-proline uptake into collagen) [2]: significantly improved

NCCO [ethanolamine]
moisture retention duration (30 to 120 minutes after application) [1]: continuation of moisture retention was observed | collagen production ability of fibroblasts damaged by active oxygen (3H-proline uptake into collagen) [2]: significantly improved
